Results: patent publication US20240270762A1, “PENICILLIN-BINDING PROTEIN INHIBITORS” (priority 2021, published 2024)
≈ marks a conversion by molar mass, not a printed value.

Experiments:
[1] = target: T1, PBP1a from Acinetobacter baumannii (ATCC 19606) (Acinetobacter baumannii, UniProt A0ABX6CK30); experiment: Bocillin-FL fluorescence polarization competition binding, A. baumannii PBP1a; conditions: fluorescence polarization competition binding assay using Bocillin-FL; read-out: A. baumannii PBP1a Potency
T1 sequence (A0ABX6CK30 1-851): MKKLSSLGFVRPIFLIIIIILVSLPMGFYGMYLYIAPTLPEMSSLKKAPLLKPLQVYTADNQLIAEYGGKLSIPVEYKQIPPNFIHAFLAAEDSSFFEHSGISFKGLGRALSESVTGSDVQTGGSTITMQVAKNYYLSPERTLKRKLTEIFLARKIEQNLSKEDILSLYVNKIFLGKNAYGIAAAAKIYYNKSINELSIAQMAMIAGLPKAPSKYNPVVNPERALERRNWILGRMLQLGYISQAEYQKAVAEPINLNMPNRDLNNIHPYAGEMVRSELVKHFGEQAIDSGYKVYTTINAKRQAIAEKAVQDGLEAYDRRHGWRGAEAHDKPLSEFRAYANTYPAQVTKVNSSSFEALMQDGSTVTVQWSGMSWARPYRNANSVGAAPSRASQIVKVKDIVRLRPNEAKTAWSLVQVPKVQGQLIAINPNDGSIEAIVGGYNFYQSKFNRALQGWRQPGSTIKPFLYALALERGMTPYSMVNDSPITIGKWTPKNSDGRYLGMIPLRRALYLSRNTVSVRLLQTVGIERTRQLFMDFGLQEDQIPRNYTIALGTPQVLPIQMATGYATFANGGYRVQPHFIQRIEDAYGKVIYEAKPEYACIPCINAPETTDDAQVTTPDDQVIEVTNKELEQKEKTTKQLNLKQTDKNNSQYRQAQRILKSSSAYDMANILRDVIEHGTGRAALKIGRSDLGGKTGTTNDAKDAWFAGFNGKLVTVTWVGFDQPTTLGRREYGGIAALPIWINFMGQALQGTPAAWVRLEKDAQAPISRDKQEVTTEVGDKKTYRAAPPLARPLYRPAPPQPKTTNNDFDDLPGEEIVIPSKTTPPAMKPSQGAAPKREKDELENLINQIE
Procedure, shortened: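 Purified PBPs pre-incubated with inhibitor (E. coli PBP3 1.5 μM, 30 min; P. aeruginosa PBP3 0.75 μM, A. baumannii PBP1a 1 μM and PBP3 0.2 μM, 15 min), then Bocillin-FL 0.1 μM (0.05 μM for PBP1a) added; FP read up to 60 min. EC50 = concentration halving bound Bocillin-FL.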

N. gonorrhoeae WHO Z = experiment: Liquid broth MIC in Fastidious broth; conditions: Neisseria gonorrhoeae, read-out: Minimum Inhibitory Concentration, WHO Z
N. gonorrhoeae WHO Q = experiment: Liquid broth MIC in Fastidious broth; conditions: Neisseria gonorrhoeae, read-out: Minimum Inhibitory Concentration, WHO Q

Structure (SMILES)	IC50 [1]	MIC (N. gonorrhoeae WHO Z)	MIC (N. gonorrhoeae WHO Q)
O=C(NCCS(=O)(=O)N1CCN(C(=O)NC(C(=O)N[C@H]2Cc3ccc(F)c(C(=O)O)c3OB2O)c2cc(F)c(O)c(O)c2Cl)C1=O)Nc1ccc(O)cc1 (stereo partly drawn) [Example 289, (3R)-3-(2-(2-chloro-5-fluoro-3,4-dihydroxyphenyl)-2-(3-((2-(3-(4-hydroxyphenyl)ureido)ethyl)sulfonyl)-2-oxoimidazolidine-1-carboxamido)acetamido)-7-fluoro-2-hydroxy-3,4-dihydro-2H-benzo[e][1,2]oxaborinine-8-carboxylic acid]	> 250 µM	4 to 8 µg/mL (≈ 5.02 to 10 µM)	4 to 8 µg/mL (≈ 5.02 to 10 µM)
O=C(NCCS(=O)(=O)N1CCN(C(=O)N[C@@H](C(=O)N[C@H]2Cc3ccc(F)c(C(=O)O)c3OB2O)c2cc(F)c(O)c(O)c2Cl)C1=O)Nc1ccncc1 [Example 290, (R)-3-((R)-2-(2-chloro-5-fluoro-3,4-dihydroxyphenyl)-2-(2-oxo-3-((2-(3-(pyridin-4-yl)ureido)ethyl)sulfonyl)imidazolidine-1-carboxamido)acetamido)-7-fluoro-2-hydroxy-3,4-dihydro-2H-benzo[e][1,2]oxaborinine-8-carboxylic acid]	> 250 µM	4 to 8 µg/mL (≈ 5.12 to 10.2 µM)	16 to 32 µg/mL (≈ 20.5 to 40.9 µM)
O=C(NCCCS(=O)(=O)N1CCN(C(=O)NC(C(=O)N[C@H]2Cc3ccc(F)c(C(=O)O)c3OB2O)c2cc(F)c(O)c(O)c2Cl)C1=O)Nc1ccncc1 (stereo partly drawn) [Example 291, (3R)-3-(2-(2-chloro-5-fluoro-3,4-dihydroxyphenyl)-2-(2-oxo-3-((3-(3-(pyridin-4-yl)ureido)propyl)sulfonyl)imidazolidine-1-carboxamido)acetamido)-7-fluoro-2-hydroxy-3,4-dihydro-2H-benzo[e][1,2]oxaborinine-8-carboxylic acid]	> 250 µM	4 to 8 µg/mL (≈ 5.03 to 10.1 µM)	16 to 32 µg/mL (≈ 20.1 to 40.2 µM)
O=C(O)c1c(F)ccc2c1OB(O)[C@@H](NC(=O)C(NC(=O)N1CCN(Cc3ccc(O)c(O)c3Cl)C(=O)C1=O)c1cc(F)c(O)c(O)c1Cl)C2 (stereo partly drawn) [Example 292, (3R)-3-(2-(4-(2-chloro-3,4-dihydroxybenzyl)-2,3-dioxopiperazine-1-carboxamido)-2-(2-chloro-5-fluoro-3,4-dihydroxyphenyl)acetamido)-7-fluoro-2-hydroxy-3,4-dihydro-2H-benzo[e][1,2]oxaborinine-8-carboxylic acid]	> 250 µM	> 64 µg/mL	> 64 µg/mL
O=C(O)c1c(F)ccc2c1OB(O)[C@@H](NC(=O)C(NC(=O)N1CCN(C3CCN(C(=O)c4cccc(O)c4)CC3)C(=O)C1=O)c1cc(F)c(O)c(O)c1Cl)C2 (stereo partly drawn) [Example 293, (3R)-3-(2-(2-chloro-5-fluoro-3,4-dihydroxyphenyl)-2-(4-(1-(3-hydroxybenzoyl)piperidin-4-yl)-2,3-dioxopiperazine-1-carboxamido)acetamido)-7-fluoro-2-hydroxy-3,4-dihydro-2H-benzo[e][1,2]oxaborinine-8-carboxylic acid]	> 250 µM	> 64 µg/mL	> 64 µg/mL
O=C(NCCCN1CCN(C(=O)N[C@@H](C(=O)N[C@H]2Cc3ccc(F)c(C(=O)O)c3OB2O)c2cc(F)c(O)c(O)c2Cl)C(=O)C1=O)c1ccncc1 [Example 294, (R)-3-((R)-2-(2-chloro-5-fluoro-3,4-dihydroxyphenyl)-2-(4-(3-(isonicotinamido)propyl)-2,3-dioxopiperazine-1-carboxamido)acetamido)-7-fluoro-2-hydroxy-3,4-dihydro-2H-benzo[e][1,2]oxaborinine-8-carboxylic acid]	> 250 µM	16 to 32 µg/mL (≈ 21.5 to 43 µM)	> 64 µg/mL
O=C(NCCCN1CCN(C(=O)NC(C(=O)N[C@H]2Cc3ccc(F)c(C(=O)O)c3OB2O)c2cc(F)c(O)c(O)c2Cl)C(=O)C1=O)c1ccncc1Cl (stereo partly drawn) [Example 295, (3R)-3-(2-(2-chloro-5-fluoro-3,4-dihydroxyphenyl)-2-(4-(3-(3-chloroisonicotinamido)propyl)-2,3-dioxopiperazine-1-carboxamido)acetamido)-7-fluoro-2-hydroxy-3,4-dihydro-2H-benzo[e][1,2]oxaborinine-8-carboxylic acid]	> 250 µM	> 64 µg/mL	> 64 µg/mL
O=C(NCCCN1CCN(C(=O)N[C@@H](C(=O)N[C@H]2Cc3ccc(F)c(C(=O)O)c3OB2O)c2cc(F)c(O)c(O)c2Cl)C(=O)C1=O)c1ccncc1O [Example 296, (R)-3-((R)-2-(2-chloro-5-fluoro-3,4-dihydroxyphenyl)-2-(4-(3-(3-hydroxyisonicotinamido)propyl)-2,3-dioxopiperazine-1-carboxamido)acetamido)-7-fluoro-2-hydroxy-3,4-dihydro-2H-benzo[e][1,2]oxaborinine-8-carboxylic acid]	> 250 µM	> 64 µg/mL	> 64 µg/mL
Cc1cnccc1C(=O)NCCCN1CCN(C(=O)NC(C(=O)N[C@H]2Cc3ccc(F)c(C(=O)O)c3OB2O)c2cc(F)c(O)c(O)c2Cl)C(=O)C1=O (stereo partly drawn) [Example 297, (3R)-3-(2-(2-chloro-5-fluoro-3,4-dihydroxyphenyl)-2-(4-(3-(3-methylisonicotinamido)propyl)-2,3-dioxopiperazine-1-carboxamido)acetamido)-7-fluoro-2-hydroxy-3,4-dihydro-2H-benzo[e][1,2]oxaborinine-8-carboxylic acid]	> 250 µM	> 64 µg/mL	> 64 µg/mL
Cc1cc(C(=O)NCCCN2CCN(C(=O)N[C@@H](C(=O)N[C@H]3Cc4ccc(F)c(C(=O)O)c4OB3O)c3cc(F)c(O)c(O)c3Cl)C(=O)C2=O)ccn1 [Example 298, (R)-3-((R)-2-(2-chloro-5-fluoro-3,4-dihydroxyphenyl)-2-(4-(3-(2-methylisonicotinamido)propyl)-2,3-dioxopiperazine-1-carboxamido)acetamido)-7-fluoro-2-hydroxy-3,4-dihydro-2H-benzo[e][1,2]oxaborinine-8-carboxylic acid]	> 250 µM	> 64 µg/mL	> 64 µg/mL
O=C(NCCCN1CCN(C(=O)N[C@H](C(=O)N[C@H]2Cc3ccc(F)c(C(=O)O)c3OB2O)c2cc(F)c(O)c(O)c2Cl)C(=O)C1=O)c1ccnc(F)c1F [Example 299, (R)-3-((S)-2-(2-chloro-5-fluoro-3,4-dihydroxyphenyl)-2-(4-(3-(2,3-difluoroisonicotinamido)propyl)-2,3-dioxopiperazine-1-carboxamido)acetamido)-7-fluoro-2-hydroxy-3,4-dihydro-2H-benzo[e][1,2]oxaborinine-8-carboxylic acid]	> 250 µM	> 64 µg/mL	> 64 µg/mL
O=C(NCCCN1CCN(C(=O)N[C@@H](C(=O)N[C@H]2Cc3ccc(F)c(C(=O)O)c3OB2O)c2cc(F)c(O)c(O)c2Cl)C(=O)C1=O)c1ccnc(F)c1F [Example 300, (R)-3-((R)-2-(2-chloro-5-fluoro-3,4-dihydroxyphenyl)-2-(4-(3-(2,3-difluoroisonicotinamido)propyl)-2,3-dioxopiperazine-1-carboxamido)acetamido)-7-fluoro-2-hydroxy-3,4-dihydro-2H-benzo[e][1,2]oxaborinine-8-carboxylic acid]	> 250 µM	> 64 µg/mL	> 64 µg/mL
Cc1cc(C(=O)NCCCN2CCN(C(=O)NC(C(=O)N[C@H]3Cc4ccc(F)c(C(=O)O)c4OB3O)c3cc(F)c(O)c(O)c3Cl)C(=O)C2=O)c(F)cn1 (stereo partly drawn) [Example 301, (3R)-3-(2-(2-chloro-5-fluoro-3,4-dihydroxyphenyl)-2-(4-(3-(5-fluoro-2-methylisonicotinamido)propyl)-2,3-dioxopiperazine-1-carboxamido)acetamido)-7-fluoro-2-hydroxy-3,4-dihydro-2H-benzo[e][1,2]oxaborinine-8-carboxylic acid]	> 250 µM	> 64 µg/mL	> 64 µg/mL
O=C(NCCCN1CCN(C(=O)N[C@H](C(=O)N[C@H]2Cc3ccc(F)c(C(=O)O)c3OB2O)c2cc(F)c(O)c(O)c2Cl)C(=O)C1=O)c1cccc(O)c1Cl [Example 302, (R)-3-((S)-2-(4-(3-(2-chloro-3-hydroxybenzamido)propyl)-2,3-dioxopiperazine-1-carboxamido)-2-(2-chloro-5-fluoro-3,4-dihydroxyphenyl)acetamido)-7-fluoro-2-hydroxy-3,4-dihydro-2H-benzo[e][1,2]oxaborinine-8-carboxylic acid]	> 250 µM	> 64 µg/mL	> 64 µg/mL
